In brackets after ≈: the same amount, converted by molar mass. Like-named read-outs stand apart in the source and are kept apart here.
Tests used:
[1] = biological target: T1, purified CutC (choline trimethylamine-lyase) (Oleidesulfovibrio alaskensis, UniProt Q30W70); assay: In vitro CutC activity assay coupled to YADH/NADH (absorbance 340 nm); assay type: biochemical, Desulfovibrio desulfuricans G20; settings: 5 nM CutC, 200 µM choline, 20°C, anaerobic
T1 construct: made in house
Method: To investigate if our compounds were inhibiting CutC directly, we tested their activity toward the purified enzyme. The activity of CutC was determined using a coupled enzyme assay, where the acetaldehyde product from the cleavage of choline to TMA is reduced to ethanol by yeast alcohol dehydrogenase (YADH) using nicotinamide adenine dinucleotide (NADH) as a cofactor. The consumption of NADH results in a change in absorption at 340 nm, and this rate of change of absorption was used to calculate the initial rates of reaction of CutC in the presence of varying concentrations of inhibitors ([14], [65]).
CutC and CutD enzymes from Desulfovibrio desulfuricans G20 were purified, CutC was activated by incubation with CutD, and the amount of glycyl radical installation was quantified as previously described ([15]). The IC50 of compounds was determined in an in vitro CutC activity assay, where CutC activity is coupled to the NADH-dependent enzymatic reduction of acetaldehyde by YADH ([15]). Briefly, assays were conducted in an anaerobic chamber (MBraun) under N2 atmosphere at 20°C. In 50 mM potassium phosphate buffer (pH 8.0, 50 mM KCl), 40 µM of CutD and 150 µM of sodium dithionite were incubated for 20 min before the addition of 200 µM of SAM and 20 µM of CutC monomer. The mixture was incubated for 1 h to activate the glycyl radical enzyme, after which the activated CutC mixture was diluted […] in 50 mM potassium phosphate buffer (pH 8.0, 50 mM KCl). A master mix containing 200 µM NADH, 0.4 µM YADH (Sigma), and the diluted CutC mixture (5 nM final concentration in assay) was prepared and aliquoted into 96-well plates (180 µL per well). Ten microliters of inhibitor or DMSO vehicle was added, followed by 10 µL of aqueous choline chloride solution (final concentration 200 µM). Absorbance was measured at 340 nm immediately after addition of all assay components, with measurements taken every 20 s for 10 min. Initial rates were calculated from absorbance measurements and fitted to Michaelis–Menten equation using nonlinear regression in GraphPad Prism 10 (v. 10.4.0). Background activity was subtracted using no substrate controls, and initial rates for each inhibitor concentration were normalized to no inhibitor controls. IC50 values were obtained by plotting normalized activity values against the logarithm of inhibitor concentration and fitting to a nonlinear regression model in GraphPad Prism 10 (v. 10.4.0).

E. coli MS 200-1 [2] = assay: TMA inhibition in bacterial whole cells (LC–MS/MS of d9-TMA from d9-choline); assay type: cell-based, Escherichia coli MS 200-1; settings: 1 mM d9-choline in PBS, 75 min, 37°C, anaerobic
Method: (§1) For TMA inhibition assays, E. coli and P. mirabilis were grown in NCE medium supplemented with 20 mM choline chloride, A. hydrogenalis was grown in MEGA medium supplemented with 3 mM choline chloride, and C. sporogenes was grown in BHI medium supplemented with 20 mM of choline chloride to induce expression of the cut gene cluster. For MIC assays, all bacteria strains were grown in MEGA medium.
(§2) Compounds were stored as 10 mM DMSO stocks at –20°C and diluted in DMSO to prepare varying concentrations of inhibitors for testing. Bacteria were grown anaerobically overnight in media supplemented with choline as described above. Cells were pelleted and resuspended in PBS, and d9-choline chloride was added to a final concentration of 1 mM. The final OD600 of the PBS cell resuspensions is as follows: 0.4 (E. coli), 0.15–0.2 (P. mirabilis), 0.2 (C. sporogenes), and 0.4 (A. hydrogenalis). The resuspended cells were added to 96-well plates containing inhibitors (final concentration of 1% DMSO, with final inhibitor concentrations ranging between 0 and 325 µM). The plates were sealed and incubated for 75 min (or 90 min for P. mirabilis) at 37°C. Following incubation, the plates were removed from the anaerobic chamber and analyzed immediately or kept at –20°C until LC–MS/MS analysis. Each inhibitor concentration was tested in triplicate. EC50 values were calculated with GraphPad Prism by fitting the log(inhibitor) vs response—Variable slope (four-parameter) model for non-linear regression.
(§3) Samples were kept frozen until analysis and kept cold on ice during handling due to the volatility of TMA. Bacterial cell resuspensions in PBS were diluted 100-fold in LCMS-grade acetonitrile with 0.1% formic acid to lyse cells, precipitate proteins, and extract metabolites. Samples were centrifuged at 4,000 rpm for 10 min at 4°C to pellet proteins. The supernatants were then further diluted 20-fold in LCMS-grade acetonitrile with 0.1% formic acid, and the resulting solution was analyzed by LC–MS/MS.
(§4) LC–MS/MS analysis was performed on an Agilent 1290/6470 Triple Quadrupole LC–MS instrument (Agilent Technologies) using electrospray ionization. The mass spectrometer was operated in multiple reaction monitoring (MRM) mode with positive ionization monitoring. The precursor–product ion pairs used in MRM mode were as follows: m/z 69.1m/z → 49.1 (d9-TMA) and m/z 113.2 m/z → 69.1 (d9-choline). The capillary voltage was set to 4.0 kV, and the fragmentor voltage was set to 30 V (d9-TMA) and 115 V (d9-choline). The collision energy for the precursor–product ion pairs was set to 29 V (d9-TMA) and 21 V (d9-choline). MS^1 resolution was set to wide and MS^2 resolution to unit. The drying gas temperature was maintained at 250°C, with a flow rate of 11 L/min and a nebulizer pressure of 45 psi. The time filter width used was 0.07 min. The injection volume of all samples was 1 μL. Samples were injected onto InfinityLab Poroshell 120 (Agilent) HILIC columns (2.7 μm, 100 mm × 2.1 mm, 100 Å) preceded by InfinityLab Poroshell 120 HILIC guard columns (2.1 mm, 1.9µm UHPLC guard). The LC conditions on the binary pump were as follows: a gradient of 5–35% A increasing over 1.95 min (1.2 mL/min), a gradient of 35–5% A decreasing over 0.05 min (1.6 mL/min), and held at 5% A for 0.5 min (2 mL/min). […] Solvent A was 10 mM ammonium formate with 0.1% formic acid, and solvent B was acetonitrile with 0.1% formic acid. Data analysis was performed with Mass Hunter Workstation Data Acquisition and Qualitative Analysis software (Agilent Technologies).

[3] = system: Anaerococcus hydrogenalis DSM 7454; assay: as above; assay type: cell-based; settings: 1 mM d9-choline in PBS, 75 min, 37°C, anaerobic
Method: as §1, §2, §3, §4

[4] = system: Clostridium sporogenes ATCC 15579; assay: as above; assay type: cell-based; settings: 1 mM d9-choline in PBS, 75 min, 37°C, anaerobic
Method: as §1, §2, §3, §4

[5] = system: Proteus mirabilis ATCC 29906; assay: as above; assay type: cell-based; settings: 1 mM d9-choline in PBS, 90 min, 37°C, anaerobic; for EC50: read-out: EC50 in whole cells, P. mirabilis (TMA inhibition)
Method: as §1, §2, §3, §4

[6] = system: choline-metabolizing gut bacteria (E. coli, P. mirabilis, C. sporogenes, A. hydrogenalis); assay: TMA inhibition across the panel of four choline-metabolizing gut bacteria; assay type: cell-based; settings: compared with compound 6
Description: We then used secondary assays to prioritize scaffolds that had broad-spectrum TMA inhibitory activity against additional choline-metabolizing gut bacteria. For this, we used Clostridium sporogenes ATCC 15579, a human gut isolate that is able to efficiently ferment choline in addition to other carbon sources, as well as Anaerococcus hydrogenalis DSM 7454 and Proteus mirabilis ATCC 29906, human gut isolates previously identified to metabolize choline in vitro ([61]). In particular, E. coli MS 200-1 and C. sporogenes ATCC 15579 have been used in gnotobiotic studies to investigate the effects of bacterial choline metabolism on the host and microbiome ([46], [61], [62]). These strains are representative of taxa frequently detected in humans ([63]) and, together with E. coli, are representative of the major phyla and genera in which TMA producers have been detected across human gut isolates ([48]). Importantly, this group of strains included both gram-positive and gram-negative bacteria. Gram-negative bacteria have an additional outer membrane layer and associated efflux pumps ([29]), which typically decreases small molecule permeability compared to gram-positive bacteria. It also included bacteria with cut gene cluster architectures that differ in the number and types of microcompartment proteins encoded and in the size of the CutC enzyme ([48]). We hypothesized that testing the inhibitors against multiple choline-utilizing gut bacteria would increase the likelihood of identifying compounds with broad-spectrum activity.
as §2

[7] = system: Bacteroides thetaiotaomicron VPI-5482; assay: MIC in MEGA medium; assay type: cell-based; settings: anaerobic, 37°C, 24 h, up to 200 µM, read-out: MIC in MEGA medium, B. thetaiotaomicron
Method: as §1

[8] = system: Collinsella aerofaciens ATCC 25986; assay: MIC in MEGA medium; assay type: cell-based; settings: anaerobic, 37°C, 24 h, up to 200 µM
Method: as §1

[9] = system: Anaerococcus hydrogenalis DSM 7454; assay: MIC in MEGA medium; assay type: cell-based; settings: anaerobic, 37°C, 24 h, up to 200 µM
Method: as §1

[10] = system: Bacteroides caccae ATCC 43185; assay: MIC in MEGA medium; assay type: cell-based; settings: anaerobic, 37°C, 24 h, up to 200 µM, read-out: MIC in MEGA medium, B. caccae
Method: as §1

[11] = system: Bacteroides ovatus ATCC 8483; assay: MIC in MEGA medium; assay type: cell-based; settings: anaerobic, 37°C, 24 h, up to 200 µM, read-out: MIC in MEGA medium, B. ovatus
Method: as §1

[12] = system: Clostridium sporogenes ATCC 15579; assay: MIC in MEGA medium; assay type: cell-based; settings: anaerobic, 37°C, 24 h, up to 200 µM
Method: as §1

[13] = system: Proteus mirabilis ATCC 29906; assay: MIC in MEGA medium; assay type: cell-based; settings: anaerobic, 37°C, 24 h, up to 200 µM, read-out: MIC in MEGA medium, P. mirabilis
Method: as §1

E. coli MS 200-1 [14] = assay: MIC in MEGA medium; assay type: cell-based, Escherichia coli MS 200-1; settings: anaerobic, 37°C, 24 h, up to 200 µM
Method: as §1

[15] = system: Eubacterium rectale ATCC 33656; assay: MIC in MEGA medium; assay type: cell-based; settings: anaerobic, 37°C, 24 h, up to 200 µM; read-out: MIC in MEGA medium, E. rectale
Method: as §1

T1 sequence (Q30W70 53-846): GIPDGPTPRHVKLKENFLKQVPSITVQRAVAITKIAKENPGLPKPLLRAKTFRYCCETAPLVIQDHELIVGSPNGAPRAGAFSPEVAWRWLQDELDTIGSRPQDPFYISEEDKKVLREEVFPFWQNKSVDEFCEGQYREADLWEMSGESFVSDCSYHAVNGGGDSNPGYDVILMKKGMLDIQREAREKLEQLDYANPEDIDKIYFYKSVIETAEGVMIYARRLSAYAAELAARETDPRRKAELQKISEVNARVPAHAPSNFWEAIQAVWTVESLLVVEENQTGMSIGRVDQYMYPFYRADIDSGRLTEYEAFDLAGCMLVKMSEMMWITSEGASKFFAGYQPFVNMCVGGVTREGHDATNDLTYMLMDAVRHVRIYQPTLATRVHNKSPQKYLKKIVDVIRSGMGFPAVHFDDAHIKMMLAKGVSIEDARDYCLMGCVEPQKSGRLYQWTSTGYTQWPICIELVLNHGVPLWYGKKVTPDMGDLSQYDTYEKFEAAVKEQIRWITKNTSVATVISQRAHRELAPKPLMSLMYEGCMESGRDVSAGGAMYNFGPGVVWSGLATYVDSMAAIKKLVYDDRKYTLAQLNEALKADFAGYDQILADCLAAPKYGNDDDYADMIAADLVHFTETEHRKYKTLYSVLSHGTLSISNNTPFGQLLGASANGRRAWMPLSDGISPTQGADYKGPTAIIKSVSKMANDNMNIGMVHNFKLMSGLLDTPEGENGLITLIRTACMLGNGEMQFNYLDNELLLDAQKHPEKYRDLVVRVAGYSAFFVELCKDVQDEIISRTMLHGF

SMILES: Cc1[nH]ccc1C(=O)NCCCN1CCC(C)CC1 [Compound 20]
- IC50 [1]: > 125 µM
- EC50 (E. coli MS 200-1 [2]): > 125 µM
- EC50 in whole cells, A. hydrogenalis (TMA inhibition) [3]: No inhibition at 312
- EC50 in whole cells, C. sporogenes (TMA inhibition) [4]: No inhibition at 312
- EC50 in whole cells, P. mirabilis (TMA inhibition) [5]: No inhibition at 312

SMILES: Cc1ccc(-c2cc(C(=O)OCCCN3CCC(C)CC3)c(C)[nH]2)cc1C [Compound 28]
- Purified CutC IC50 [1]: No inhibition
- EC50 (E. coli MS 200-1 [2]): 15 µM
- EC50 [3]: 11 µM
- EC50 [4]: 18 µM
- EC50 [5]: > 312 µM

SMILES: Cc1cc(-c2cc(C(=O)NCCCN3CCC(C)CC3)c(C)[nH]2)ccn1 [Compound 26]
- IC50 [1]: 45 µM
- EC50 (E. coli MS 200-1 [2]): > 125 µM
- EC50 in whole cells, A. hydrogenalis (TMA inhibition) [3]: No inhibition at 312
- EC50 in whole cells, C. sporogenes (TMA inhibition) [4]: No inhibition at 312
- EC50 [5]: > 312 µM

SMILES: Cc1ccc(-c2cc(C(=O)NCCCN3CCC(C)CC3)c[nH]2)cc1C [Compound 7]
- Fold reduction of potency across all four choline-metabolizing bacteria [6]: about 2 fold
- EC50 (E. coli MS 200-1 [2]): 16 µM
- EC50 [3]: 66 µM
- EC50 [4]: 215 µM
- EC50 [5]: 80 µM

SMILES: Cc1ccc(-c2cc(C(=O)NCCCCN3CCCCCC3)c(C)[nH]2)cc1C [Compound 44]
- MIC ([7]; Bacteroides thetaiotaomicron, VPI5482): > 200 µM
- MIC ([8]; Collinsella aerofaciens, ATCC25986): > 200 µM
- MIC ([9]; Anaerococcus hydrogenalis, DSM7454): > 200 µM
- MIC ([10]; Bacteroides caccae, ATCC43185): > 200 µM
- MIC ([11]; Bacteroides ovatus, ATCC8483): > 200 µM
- MIC ([12]; Clostridium sporogenes, ATCC15579): > 200 µM
- MIC ([13]; Proteus mirabilis, ATCC29906): > 200 µM
- MIC (E. coli MS 200-1 [14]; Escherichia coli, MS2001): > 200 µM

SMILES: Cc1cccc(-c2cc(C(=O)NCCCN3CCC(C)CC3)c(C)[nH]2)c1 [Compound 23]
- IC50 [1]: 64 µM
- EC50 (E. coli MS 200-1 [2]): 5 µM
- MIC [7]: > 200 µM
- MIC [8]: 200 µM (≈ 70.7 µg/mL)
- MIC [9]: > 200 µM
- MIC [10]: > 200 µM
- MIC [11]: > 200 µM
- MIC [12]: > 200 µM
- MIC [15]: > 200 µM
- MIC [13]: > 200 µM
- EC50 [3]: 35 µM
- EC50 [4]: 95 µM
- EC50 [5]: 46 µM
- MIC (E. coli MS 200-1 [14]): > 200 µM

SMILES: Cc1ccc(-c2cc(C(=O)NCCCN3CCOCC3)c(C)[nH]2)cc1C [Compound 37]
- Purified CutC IC50 [1]: No inhibition

SMILES: Cc1ccc(-c2cc(C(=O)N(C)CCCN3CCC(C)CC3)c(C)[nH]2)cc1C [Compound 27]
- IC50 [1]: 18 µM
- EC50 (E. coli MS 200-1 [2]): > 125 µM
- EC50 [3]: 44 µM
- EC50 [4]: 12 µM
- EC50 [5]: > 312 µM
